ChEMBL document CHEMBL3046771, “Synthesis, spectral, and antimicrobial evaluation of some new 8-membered phosphorus heterocyclic compounds” (2011)

Key:
Type in all cases: functional
[1] = test system: Helminthosporium; experiment: Antifungal activity against Helminthosporium oryzae at 50 ppm by disc diffusion method; design: unit not given here
[2] = test system: Escherichia coli; experiment: Antibacterial activity against Escherichia coli at 50 ppm by disk diffusion method; design: unit not given here
[3] = test system: Staphylococcus aureus; experiment: Antibacterial activity against Staphylococcus aureus at 100 ppm by disk diffusion method; design: unit not given here
[4] = test system: Aspergillus niger; experiment: Antifungal activity against Aspergillus niger at 100 ppm by disk diffusion method; design: unit not given here
[5] = test system: Escherichia coli; experiment: Antibacterial activity against Escherichia coli at 25 ppm by disk diffusion method; design: unit not given here
[6] = test system: Aspergillus niger; experiment: Antifungal activity against Aspergillus niger at 50 ppm by disk diffusion method; design: unit not given here
[7] = test system: Aspergillus niger; experiment: Antifungal activity against Aspergillus niger at 25 ppm by disk diffusion method; design: unit not given here
[8] = test system: Escherichia coli; experiment: Antibacterial activity against Escherichia coli at 100 ppm by disk diffusion method; design: unit not given here
[9] = test system: Staphylococcus aureus; experiment: Antibacterial activity against Staphylococcus aureus at 50 ppm by disk diffusion method
[10] = test system: Helminthosporium; experiment: Antifungal activity against Helminthosporium oryzae at 100 ppm by disc diffusion method; design: unit not given here
[11] = test system: Helminthosporium; experiment: Antifungal activity against Helminthosporium oryzae at 25 ppm by disc diffusion method; design: unit not given here
[12] = test system: Staphylococcus aureus; experiment: Antibacterial activity against Staphylococcus aureus at 25 ppm by disk diffusion method; design: unit not given here

Compound: [Se]=P1(CBr)CNc2cccc3cccc(c23)NC1
- inhibition zone (IZ) [1]: 8
- inhibition zone (IZ) [2]: 6
- inhibition zone (IZ) [3]: 9
- inhibition zone (IZ) [4]: 10
- inhibition zone (IZ) [5]: 4
- inhibition zone (IZ) [6]: 6
- inhibition zone (IZ) [7]: 4
- inhibition zone (IZ) [8]: 12
- inhibition zone (IZ) [9]: 8%
- inhibition zone (IZ) [10]: 9

Compound: CCC(C)OCP1(=S)CNc2cccc3cccc(c23)NC1 (centres undefined)
- inhibition zone (IZ) [11]: 8
- inhibition zone (IZ) [1]: 12
- inhibition zone (IZ) [2]: 10
- inhibition zone (IZ) [3]: 13
- inhibition zone (IZ) [4]: 14
- inhibition zone (IZ) [5]: 9
- inhibition zone (IZ) [6]: 10
- inhibition zone (IZ) [7]: 9
- inhibition zone (IZ) [8]: 14
- inhibition zone (IZ) [12]: 8
- inhibition zone (IZ) [9]: 12%
- inhibition zone (IZ) [10]: 13

Compound: CC(Cc1ccccc1)OCP1(=S)CNc2cccc3cccc(c23)NC1 (centres undefined)
- inhibition zone (IZ) [11]: 7
- inhibition zone (IZ) [1]: 9
- inhibition zone (IZ) [2]: 9
- inhibition zone (IZ) [3]: 10
- inhibition zone (IZ) [4]: 13
- inhibition zone (IZ) [5]: 8
- inhibition zone (IZ) [6]: 9
- inhibition zone (IZ) [7]: 8
- inhibition zone (IZ) [8]: 8
- inhibition zone (IZ) [12]: 7
- inhibition zone (IZ) [9]: 9%
- inhibition zone (IZ) [10]: 10

Compound: CCC(CO)NCP1(=S)CNc2cccc3cccc(c23)NC1 (centres undefined)
- inhibition zone (IZ) [11]: 5
- inhibition zone (IZ) [1]: 9
- inhibition zone (IZ) [2]: 10
- inhibition zone (IZ) [3]: 11
- inhibition zone (IZ) [4]: 10
- inhibition zone (IZ) [5]: 8
- inhibition zone (IZ) [6]: 10
- inhibition zone (IZ) [7]: 8
- inhibition zone (IZ) [8]: 10
- inhibition zone (IZ) [12]: 5
- inhibition zone (IZ) [9]: 9%
- inhibition zone (IZ) [10]: 11

Compound: CC(NCP1(=S)CNc2cccc3cccc(c23)NC1)c1ccccc1 (centres undefined)
- inhibition zone (IZ) [11]: 8
- inhibition zone (IZ) [1]: 7
- inhibition zone (IZ) [2]: 7
- inhibition zone (IZ) [3]: 12
- inhibition zone (IZ) [4]: 9
- inhibition zone (IZ) [5]: 6
- inhibition zone (IZ) [6]: 7
- inhibition zone (IZ) [7]: 6
- inhibition zone (IZ) [8]: 11
- inhibition zone (IZ) [12]: 8
- inhibition zone (IZ) [9]: 7%
- inhibition zone (IZ) [10]: 12

Compound: CCC(C)OCP1(=[Se])CNc2cccc3cccc(c23)NC1 (centres undefined)
- inhibition zone (IZ) [11]: 7
- inhibition zone (IZ) [1]: 10
- inhibition zone (IZ) [2]: 10
- inhibition zone (IZ) [3]: 14
- inhibition zone (IZ) [4]: 13
- inhibition zone (IZ) [5]: 8
- inhibition zone (IZ) [6]: 10
- inhibition zone (IZ) [7]: 8
- inhibition zone (IZ) [8]: 13
- inhibition zone (IZ) [12]: 7
- inhibition zone (IZ) [9]: 10%
- inhibition zone (IZ) [10]: 14

Compound: CC(Cc1ccccc1)OCP1(=[Se])CNc2cccc3cccc(c23)NC1 (centres undefined)
- inhibition zone (IZ) [11]: 7
- inhibition zone (IZ) [1]: 10
- inhibition zone (IZ) [2]: 8
- inhibition zone (IZ) [3]: 12
- inhibition zone (IZ) [4]: 10
- inhibition zone (IZ) [5]: 7
- inhibition zone (IZ) [6]: 8
- inhibition zone (IZ) [7]: 7
- inhibition zone (IZ) [8]: 10
- inhibition zone (IZ) [12]: 7
- inhibition zone (IZ) [9]: 10%
- inhibition zone (IZ) [10]: 12

Compound: CCC(CO)NCP1(=[Se])CNc2cccc3cccc(c23)NC1 (centres undefined)
- inhibition zone (IZ) [11]: 6
- inhibition zone (IZ) [1]: 9
- inhibition zone (IZ) [2]: 6
- inhibition zone (IZ) [3]: 10
- inhibition zone (IZ) [4]: 9
- inhibition zone (IZ) [5]: 7
- inhibition zone (IZ) [6]: 6
- inhibition zone (IZ) [7]: 4
- inhibition zone (IZ) [8]: 19
- inhibition zone (IZ) [12]: 8
- inhibition zone (IZ) [9]: 6%
- inhibition zone (IZ) [10]: 10

Compound: CC(NCP1(=[Se])CNc2cccc3cccc(c23)NC1)c1ccccc1 (centres undefined)
- inhibition zone (IZ) [11]: 5
- inhibition zone (IZ) [1]: 8
- inhibition zone (IZ) [2]: 5
- inhibition zone (IZ) [3]: 11
- inhibition zone (IZ) [4]: 12
- inhibition zone (IZ) [5]: 3
- inhibition zone (IZ) [6]: 9
- inhibition zone (IZ) [7]: 6
- inhibition zone (IZ) [8]: 10
- inhibition zone (IZ) [12]: 5
- inhibition zone (IZ) [9]: 9%
- inhibition zone (IZ) [10]: 9

Compound: S=P1(CBr)CNc2cccc3cccc(c23)NC1
- inhibition zone (IZ) [11]: 9
- inhibition zone (IZ) [1]: 11
- inhibition zone (IZ) [2]: 5
- inhibition zone (IZ) [3]: 13
- inhibition zone (IZ) [4]: 9
- inhibition zone (IZ) [5]: 3
- inhibition zone (IZ) [6]: 5
- inhibition zone (IZ) [7]: 3
- inhibition zone (IZ) [8]: 10
- inhibition zone (IZ) [12]: 9
- inhibition zone (IZ) [9]: 11%
- inhibition zone (IZ) [10]: 13

Compound: CC1(C)S[C@@H]2[C@H](NC(=O)Cc3ccccc3)C(=O)N2[C@H]1C(=O)O [PENICILLIN G]
- inhibition zone (IZ) [9]: 8%
